Test results reported in PubChem BioAssay (NCI).
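Five concentrations, 48 hours, 96-well plates. At the TGI there is no net growth.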

Columns and labels:
Test in all cases: NCI anticancer screen, dose series, 48 h
NCI-H522 lung = system: NCI-H522 lung
COLO 205 colon = system: COLO 205 colon
NCI/ADR-RES ovarian = system: NCI/ADR-RES ovarian
786-0 renal = system: 786-0 renal
OVCAR-4 ovarian = system: OVCAR-4 ovarian
SNB-75 CNS = system: SNB-75 CNS
NCI-H226 lung = system: NCI-H226 lung
MDA-N = system: MDA-N
OVCAR-5 ovarian = system: OVCAR-5 ovarian
NCI-H460 lung = system: NCI-H460 lung
SF-295 CNS = system: SF-295 CNS
TK-10 renal = system: TK-10 renal
HS 578T breast = system: HS 578T breast
HCT-116 colon = system: HCT-116 colon
SF-268 CNS = system: SF-268 CNS
BT-549 breast = system: BT-549 breast
RXF 393 renal = system: RXF 393 renal
NCI-H23 lung = system: NCI-H23 lung
MDA-MB-231 breast = system: MDA-MB-231 breast
K-562 leukemia = system: K-562 leukemia
SK-MEL-2 melanoma = system: SK-MEL-2 melanoma
MALME-3M melanoma = system: MALME-3M melanoma
SF-539 CNS = system: SF-539 CNS
LOX IMVI melanoma = system: LOX IMVI melanoma
HCC-2998 colon = system: HCC-2998 colon
ACHN renal = system: ACHN renal
UACC-62 melanoma = system: UACC-62 melanoma
CAKI-1 renal = system: CAKI-1 renal
MCF7 breast = system: MCF7 breast
UO-31 renal = system: UO-31 renal
HCT-15 colon = system: HCT-15 colon
SNB-19 CNS = system: SNB-19 CNS
PC-3 prostate = system: PC-3 prostate
HT29 colon = system: HT29 colon
OVCAR-3 ovarian = system: OVCAR-3 ovarian
KM12 colon = system: KM12 colon
SK-MEL-28 melanoma = system: SK-MEL-28 melanoma
MDA-MB-435 = system: MDA-MB-435
U251 CNS = system: U251 CNS
HOP-62 NSCLC = system: HOP-62 NSCLC
UACC-257 melanoma = system: UACC-257 melanoma
SK-MEL-5 melanoma = system: SK-MEL-5 melanoma
SK-OV-3 ovarian = system: SK-OV-3 ovarian
DU-145 prostate = system: DU-145 prostate
A498 renal = system: A498 renal
T-47D breast = system: T-47D breast
HL-60(TB) leukemia = system: HL-60(TB) leukemia
M14 melanoma = system: M14 melanoma
SN12C renal = system: SN12C renal
SW-620 colon = system: SW-620 colon
EKVX NSCLC = system: EKVX NSCLC
A549 NSCLC = system: A549 NSCLC
HOP-92 NSCLC = system: HOP-92 NSCLC
IGROV1 ovarian = system: IGROV1 ovarian
SR leukemia = system: SR leukemia
MOLT-4 leukemia = system: MOLT-4 leukemia
RPMI-8226 leukemia = system: RPMI-8226 leukemia
CCRF-CEM leukemia = system: CCRF-CEM leukemia

## C[n+]1c2ccccc2n2c3ccccc3c(NCc3ccco3)c(C#N)c21
NCI-H522 lung
  TGI: 2.83 µM
COLO 205 colon
  TGI: 19.9 µM
NCI/ADR-RES ovarian
  TGI: 9.55 µM
786-0 renal
  TGI: 12.8 µM
OVCAR-4 ovarian
  TGI: 10.7 µM
SNB-75 CNS
  TGI: 6.86 µM
NCI-H226 lung
  TGI: 16 µM
MDA-N
  TGI: 10.9 µM
OVCAR-5 ovarian
  TGI: 12 µM
NCI-H460 lung
  TGI: 4.19 µM
SF-295 CNS
  TGI: 16.6 µM
TK-10 renal
  TGI: 11.3 µM
HS 578T breast
  TGI: 10.8 µM
HCT-116 colon
  TGI: 14.7 µM
SF-268 CNS
  TGI: 11.3 µM
BT-549 breast
  TGI: > 100 µM
RXF 393 renal
  TGI: 6.21 µM
NCI-H23 lung
  TGI: 8.92 µM
MDA-MB-231 breast
  TGI: 16.6 µM
K-562 leukemia
  TGI: > 21.1 µM
SK-MEL-2 melanoma
  TGI: 6.51 µM
MALME-3M melanoma
  TGI: 7.59 µM
SF-539 CNS
  TGI: 8.79 µM
LOX IMVI melanoma
  TGI: 3.65 µM
HCC-2998 colon
  TGI: 3.36 µM
ACHN renal
  TGI: 9.08 µM
UACC-62 melanoma
  TGI: 11.7 µM
CAKI-1 renal
  TGI: 7.36 µM
MCF7 breast
  TGI: 11.9 µM
UO-31 renal
  TGI: 7.63 µM
HCT-15 colon
  TGI: 4.34 µM
SNB-19 CNS
  TGI: 26.6 µM
PC-3 prostate
  TGI: 22.7 µM
HT29 colon
  TGI: > 100 µM
OVCAR-3 ovarian
  TGI: > 49.6 µM
KM12 colon
  TGI: 22 µM
SK-MEL-28 melanoma
  TGI: 5.75 µM
MDA-MB-435
  TGI: 4.34 µM
U251 CNS
  TGI: 13 µM
HOP-62 NSCLC
  TGI: 11.4 µM
UACC-257 melanoma
  TGI: 57.4 µM
SK-MEL-5 melanoma
  TGI: 13.7 µM
SK-OV-3 ovarian
  TGI: 39.8 µM
DU-145 prostate
  TGI: > 22.1 µM
A498 renal
  TGI: 20.4 µM
T-47D breast
  TGI: > 28.7 µM
HL-60(TB) leukemia
  TGI: 8.69 µM
M14 melanoma
  TGI: 5.62 µM
SN12C renal
  TGI: 9.82 µM
SW-620 colon
  TGI: 4.01 µM
EKVX NSCLC
  TGI: 13.6 µM
A549 NSCLC
  TGI: > 100 µM

## CCCCC1Nc2ccccc2-c2ccnc(Cl)c21 (stereo not drawn)
NCI-H522 lung
  TGI: 29.6 µM
COLO 205 colon
  TGI: 36 µM
NCI/ADR-RES ovarian
  TGI: 99.6 µM
786-0 renal
  TGI: 45.2 µM
OVCAR-4 ovarian
  TGI: 91.5 µM
SNB-75 CNS
  TGI: 52.3 µM
NCI-H226 lung
  TGI: 39.9 µM
MDA-N
  TGI: 54.9 µM
NCI-H460 lung
  TGI: > 100 µM
HOP-92 NSCLC
  TGI: 40.9 µM
SF-295 CNS
  TGI: 47.7 µM
TK-10 renal
  TGI: > 100 µM
IGROV1 ovarian
  TGI: 47.9 µM
HS 578T breast
  TGI: 32.3 µM
HCT-116 colon
  TGI: 32.3 µM
SF-268 CNS
  TGI: 89.2 µM
BT-549 breast
  TGI: 42.6 µM
RXF 393 renal
  TGI: 40.8 µM
NCI-H23 lung
  TGI: 31.4 µM
MDA-MB-231 breast
  TGI: 43.8 µM
K-562 leukemia
  TGI: 62.8 µM
SK-MEL-2 melanoma
  TGI: 35.8 µM
MALME-3M melanoma
  TGI: 51 µM
SF-539 CNS
  TGI: 41.8 µM
LOX IMVI melanoma
  TGI: 34.7 µM
HCC-2998 colon
  TGI: 69.4 µM
SR leukemia
  TGI: 51 µM
ACHN renal
  TGI: 68.4 µM
UACC-62 melanoma
  TGI: 32.2 µM
CAKI-1 renal
  TGI: 20.2 µM
MOLT-4 leukemia
  TGI: 50.9 µM
MCF7 breast
  TGI: > 100 µM
UO-31 renal
  TGI: 55.8 µM
HCT-15 colon
  TGI: 44.4 µM
SNB-19 CNS
  TGI: 77.7 µM
PC-3 prostate
  TGI: > 100 µM
HT29 colon
  TGI: 47.6 µM
RPMI-8226 leukemia
  TGI: 31.9 µM
OVCAR-3 ovarian
  TGI: 25.2 µM
CCRF-CEM leukemia
  TGI: 52.6 µM
KM12 colon
  TGI: 69 µM
SK-MEL-28 melanoma
  TGI: 46.5 µM
MDA-MB-435
  TGI: 41.7 µM
U251 CNS
  TGI: 50.1 µM
HOP-62 NSCLC
  TGI: 53.3 µM
UACC-257 melanoma
  TGI: 42.3 µM
SK-MEL-5 melanoma
  TGI: 30.3 µM
SK-OV-3 ovarian
  TGI: 55.7 µM
DU-145 prostate
  TGI: 50.3 µM
A498 renal
  TGI: 46.4 µM
HL-60(TB) leukemia
  TGI: 51.8 µM
M14 melanoma
  TGI: 43.1 µM
SN12C renal
  TGI: 51 µM
SW-620 colon
  TGI: > 100 µM
EKVX NSCLC
  TGI: 60.5 µM
A549 NSCLC
  TGI: > 100 µM
